Assay results: patent US8674136B2, “Aromatic butan-2-ol compounds and preparation and uses thereof” (Institute of Pharmacology and Toxicology Academy of …, priority 2010, dated 2014)
Converted amounts (≈) assume the structure as drawn. “And” between values parts separate entries of the source, which are not always exact repeats. Equal values may be shown once.

system: Standard Strain H37Rv of mycobacterium tuberculosis; test: MIC against standard strain H37Rv by Microplate Alamar Blue Assay (MABA); type: cell-based; details: M. tuberculosis H37Rv, 7H9 medium, 37° C.

Row | SMILES | MIC
1 | COc1cc2ccc(Br)cc2cc1C(c1ccccc1)C(O)(CCN(C)C)c1ccccc1Br (stereo not shown) [Compound 24, 1-phenyl-2-(2-bromophenyl)-1-[2-(7-bromo-3-methoxy)naphthyl]-4-(N,N-dimethylamino)-butan-2-ol] | 0.224 µg/mL (≈ 0.384 µM)
2 | COc1cc2ccc(Br)cc2cc1C(c1ccc(Cl)cc1)C(O)(CCN(C)C)c1ccc(Br)cc1 (stereo not shown) [Compound 8, 1-(4-chlorophenyl)-2-(4-bromophenyl)-1-[2-(7-bromo-3-methoxy)naphthyl]-4-(N,N-dimethylamino)-butan-2-ol] | 0.956 µg/mL (≈ 1.55 µM)
3 | COc1cc2ccc(Br)cc2cc1C(c1ccc(Cl)cc1)C(O)(CCN(C)C)c1ccccc1 (stereo not shown) [Compound 18, 1-(4-chlorophenyl)-2-phenyl-1-[2-(7-bromo-3-methoxy)naphthyl]-4-(N,N-dimethylamino)-butan-2-ol] | 0.109 µg/mL (≈ 0.202 µM)
4 | COc1cc2ccc(Br)cc2cc1C(c1ccccc1)C(O)(CCN(C)C)c1cccc2ccccc12 (stereo not shown) [Compound 26, 1-phenyl-2-(1-naphthyl)-1-[2-(7-bromo-3-methoxy)naphthyl]-4-(N,N-dimethylamino)-butan-2-ol] | 1.977 µg/mL (≈ 3.57 µM)
5 | COc1cc2ccc(Br)cc2cc1C(c1ccccc1)C(O)(CCN(C)C)c1ccccc1 (stereo not shown) [Compound 19, 1,2-diphenyl-1-[2-(7-bromo-3-methoxy)naphthyl]-4-(N,N-dimethylamino)-butan-2-ol] | 0.206 µg/mL (≈ 0.408 µM)
6 | COc1cc2ccc(Br)cc2cc1C(c1ccc(C)cc1)C(O)(CCN(C)C)c1cccc2ccccc12 (stereo not shown) [Compound 29, 1-(4-methylphenyl)-2-(1-naphthyl)-1-[2-(7-bromo-3-methoxy)naphthyl]-4-(N,N-dimethylamino)-butan-2-ol] | 0.222 µg/mL (≈ 0.39 µM)
7 | COc1cc2ccc(Br)cc2cc1C(c1ccccc1)C(O)(CCN(C)C)c1cccc(Br)c1 (stereo not shown) [Compound 11, 1-phenyl-2-(3-bromophenyl)-1-[2-(7-bromo-3-methoxy)naphthyl]-4-(N,N-dimethylamino)-butan-2-ol] | 0.103 µg/mL (≈ 0.177 µM)
8 | COc1cc2ccc(Br)cc2cc1C(c1ccccc1)C(O)(CCN(C)C)c1ccc(Br)cc1 (stereo not shown) [Compound 10, 1-phenyl-2-(4-bromophenyl)-1-[2-(7-bromo-3-methoxy)naphthyl]-4-(N,N-dimethylamino)-butan-2-ol] | 2.000 µg/mL (≈ 3.43 µM)
9 | COc1c(C(c2ccccc2)C(O)(CCN(C)C)c2cccc3ccccc23)cc2cc(Br)ccc2c1Br (stereo not shown) [Compound 32, 1-phenyl-2-(1-naphthyl)-1-[2-(4,7-dibromo-3-methoxy)naphthyl]-4-(N,N-dimethylamino)-butan-2-ol] | 1.000 µg/mL (≈ 1.58 µM)
10 | COc1cc2ccccc2cc1C(c1ccccc1)C(O)(CCN(C)C)c1cccc2ccccc12 (stereo not shown) [Compound 2, 1-phenyl-2-(1-naphthyl)-1-[2-(3-methoxy)-naphthyl]-4-(N,N-dimethylamino)-butan-2-ol] | 3.178 µg/mL (≈ 6.68 µM)
11 | CN(C)CCC(O)(c1cccc2ccccc12)C(c1ccccc1)c1cc2cc(Br)ccc2c(Br)c1O (stereo not shown) [Compound 34, 1,6-dibromo-3-[1-phenyl 2-(1-naphthyl)-2-hydroxy-4-(N,N-dimethylamino)]butyl-2-naphthol] | 4.000 µg/mL (≈ 6.46 µM)
12 | COc1cc2ccc(Br)cc2cc1C(c1ccc(Cl)cc1)C(O)(CCN(C)C)c1ccccc1Br (stereo not shown) [Compound 21, 1-(4-chlorophenyl)-2-(2-bromophenyl)-1-[2-(7-bromo-3-methoxy)naphthyl]-4-(N,N-dimethylamino)-butan-2-ol] | 2.000 µg/mL (≈ 3.24 µM)
13 | COc1cc2ccccc2cc1C(c1ccc(Cl)cc1)C(O)(CCN(C)C)c1cccc2ccccc12 (single isomer, unassigned) [Compound 6, 1-(4-chlorophenyl)-2-(1-naphthyl)-1-[2-(3-methoxy)naphthyl]-4-(N,N-dimethylamino)-butan-2-ol] | 1.454 µg/mL (≈ 2.85 µM)
14 | COc1cc2ccc(Br)cc2cc1C(c1ccc(Cl)cc1)C(O)(CCN(C)C)c1ccccc1Br (stereo not shown) [Compound 22, 1-(4-chlorophenyl)-2-(2-bromophenyl)-1-[2-(7-bromo-3-methoxy)naphthyl]-4-(N,N-dimethylamino)-butan-2-ol] | 0.111 µg/mL (≈ 0.18 µM)
15 | COc1cc2ccc(Br)cc2cc1C(c1cccc(C)c1)C(O)(CCN(C)C)c1cccc2ccccc12 (stereo not shown) [Compound 37, 1-(3-methylphenyl)-2-(1-naphthyl)-1-[2-(7-bromo-3-methoxy)naphthyl]-4-(N,N-dimethylamino)-butan-2-ol] | 0.180 µg/mL and 0.258 µg/mL
16 | COc1cc2ccc(Br)cc2cc1C(c1cccc(Cl)c1)C(O)(CCN(C)C)c1cccc2ccccc12 (stereo not shown) [Compound 36, 1-(3-chlorophenyl)-2-(1-naphthyl)-1-[2-(7-bromo-3-methoxy)naphthyl]-4-(N,N-dimethylamino)-butan-2-ol] | 3.773 µg/mL (≈ 6.41 µM)
17 | COc1cc2ccc(Br)cc2cc1C(c1ccc(Cl)cc1)C(O)(CCN(C)C)c1ccccc1 (stereo not shown) [Compound 17, 1-(4-chlorophenyl)-2-phenyl-1-[2-(7-bromo-3-methoxy)naphthyl]-4-(N,N-dimethylamino)-butan-2-ol] | 2.000 µg/mL (≈ 3.71 µM)
18 | COc1cc2ccc(Br)cc2cc1C(c1ccccc1)C(O)(CCN(C)C)c1ccccc1 (stereo not shown) [Compound 20, 1,2-diphenyl-1-[2-(7-bromo-3-methoxy)naphthyl]-4-(N,N-dimethylamino)-butan-2-ol] | 2.000 µg/mL (≈ 3.96 µM)
19 | CN(C)CCC(O)(c1cccc2ccccc12)C(c1ccccc1)c1cc2cc(Br)ccc2c(Br)c1O (stereo not shown) [Compound 33, 1,6-dibromo-3-[1-phenyl 2-(1-naphthyl)-2-hydroxy-4-(N,N-dimethylamino)]butyl-2-naphthol] | 1.000 µg/mL (≈ 1.61 µM)
20 | COc1cc2ccccc2cc1C(c1ccc(Cl)cc1)C(O)(CCN(C)C)c1cccc2ccccc12 (single isomer, unassigned) [Compound 5, 1-(4-chlorophenyl)-2-(1-naphthyl)-1-[2-(3-methoxy)naphthyl]-4-(N,N-dimethylamino)-butan-2-ol] | 3.052 µg/mL (≈ 5.98 µM)
21 | COc1cc2ccc(Br)cc2cc1C(c1ccccc1)C(O)(CCN(C)C)c1cccc(Br)c1 (stereo not shown) [Compound 12, 1-phenyl-2-(3-bromophenyl)-1-[2-(7-bromo-3-methoxy)naphthyl]-4-(N,N-dimethylamino)-butan-2-ol] | 1.000 µg/mL (≈ 1.71 µM)
22 | COc1cc2ccc(Br)cc2cc1C(c1ccc(Cl)cc1)C(O)(CCN(C)C)c1cccc(Br)c1 (stereo not shown) [Compound 15, 1-(4-chlorophenyl)-2-(3-bromophenyl)-1-[2-(7-bromo-3-methoxy)naphthyl]-4-(N,N-dimethylamino)-butan-2-ol] | 2.166 µg/mL (≈ 3.51 µM)
23 | COc1cc2ccc(Br)cc2cc1C(c1ccccc1)C(O)(CCN(C)C)c1ccc(Br)cc1 (stereo not shown) [Compound 9, 1-phenyl-2-(4-bromophenyl)-1-[2-(7-bromo-3-methoxy)naphthyl]-4-(N,N-dimethylamino)-butan-2-ol] | 0.118 µg/mL (≈ 0.202 µM)

same assay, conditions: Mycobacterium tuberculosis, H37RV, M. tuberculosis H37Rv, 7H9 medium, 37° C., read-out: MIC

Row | SMILES | MIC [µg/mL]
24 | COc1cc2ccc(Br)cc2cc1C(c1ccc(Cl)cc1)C(O)(CCN(C)C)c1ccc(Br)cc1 (stereo not shown) [Compound 7, 1-(4-chlorophenyl)-2-(4-bromophenyl)-1-[2-(7-bromo-3-methoxy)naphthyl]-4-(N,N-dimethylamino)-butan-2-ol] | 1 (≈ 1.62 µM)
25 | COc1cc2ccccc2cc1C(c1ccc(Cl)cc1)C(O)(CCN(C)C)c1ccc(F)cc1F (stereo not shown) [Compound 13, 1-(4-chlorophenyl)-2-(2,4-difluorophenyl)-1-[2-(3-methoxy)naphthyl]-4-(N,N-dimethylamino)-butan-2-ol] | 1 (≈ 2.02 µM)
